Measurements from PubChem BioAssay (NCI).
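Compound exposure: 48 hours, 5 concentrations, 96-well plates. TGI marks complete inhibition of growth.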

How the values were obtained:
Experiment in all cases: growth of human tumour cells (NCI), 48 h
[1] = test system: U251 CNS
[2] = test system: MDA-MB-231 breast
[3] = test system: OVCAR-8 ovarian
[4] = test system: HCC-2998 colon
[5] = test system: MCF7 breast
[6] = test system: HS 578T breast
[7] = test system: RXF 393 renal
[8] = test system: MOLT-4 leukemia
[9] = test system: UO-31 renal
[10] = test system: MDA-N
[11] = test system: SR leukemia
[12] = test system: HCT-15 colon
[13] = test system: HCT-116 colon
[14] = test system: SF-295 CNS
[15] = test system: SK-OV-3 ovarian
[16] = test system: ACHN renal
[17] = test system: PC-3 prostate
[18] = test system: CCRF-CEM leukemia
[19] = test system: NCI-H23 lung
[20] = test system: NCI-H460 lung
[21] = test system: SNB-19 CNS
[22] = test system: IGROV1 ovarian
[23] = test system: K-562 leukemia
[24] = test system: DU-145 prostate
[25] = test system: SK-MEL-28 melanoma
[26] = test system: M14 melanoma
[27] = test system: A549 NSCLC
[28] = test system: LOX IMVI melanoma
[29] = test system: MDA-MB-435
[30] = test system: HL-60(TB) leukemia
[31] = test system: NCI-H522 lung
[32] = test system: HOP-62 NSCLC
[33] = test system: A498 renal
[34] = test system: CAKI-1 renal
[35] = test system: BT-549 breast
[36] = test system: SN12C renal
[37] = test system: COLO 205 colon
[38] = test system: OVCAR-4 ovarian
[39] = test system: HOP-92 NSCLC
[40] = test system: SF-539 CNS
[41] = test system: UACC-257 melanoma
[42] = test system: SK-MEL-5 melanoma
[43] = test system: HT29 colon
[44] = test system: KM12 colon
[45] = test system: NCI/ADR-RES ovarian
[46] = test system: UACC-62 melanoma
[47] = test system: NCI-H226 lung
[48] = test system: SW-620 colon
[49] = test system: TK-10 renal
[50] = test system: EKVX NSCLC
[51] = test system: OVCAR-3 ovarian
[52] = test system: OVCAR-5 ovarian
[53] = test system: SF-268 CNS
[54] = test system: MALME-3M melanoma
[55] = test system: T-47D breast
[56] = test system: SK-MEL-2 melanoma
[57] = test system: RPMI-8226 leukemia
[58] = test system: 786-0 renal

Measured: TGI

CC(=O)OC[C@H]1[C@@H]2C(CC[C@]13CO3)OC(=O)CC(C)[C@]2(C)CCc1ccoc1 (some centres undefined)
not listed: [56] | [57] | [58]
> 100 µM: all other assays above

CCC1c2[nH]c3ccccc3c2C[C@H]2C(=O)NC(CCC(=O)OC(C)(C)C)C(=O)N12 (some centres undefined)
97.9 µM: [57]
72.3 µM: [37]
94.9 µM: [39]
not listed: [4] | [18] | [20] | [40]
> 100 µM: all other assays above
